Columns and labels:
[1] = test system: SAGPY (Arrowhead (Pygmaea)); experiment: Postemergence weed control under flooded paddy conditions; format: in vivo, Sagittaria pygmaea; conditions: postemergence weeds
How it was run: (§1)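 Injury ratings (0–9 scale covering stand, vigor, malformation, size, chlorosis and overall appearance versus control) were made three to four weeks after treatment. Test material, about 0.0313 to 0.500 kg/ha a.i. in 50/50 v/v aqueous/acetone, was added to flood water 1.5 to 3 cm deep over 3 to 5 cm weeds and 1.5 to 2.5 leaf rice.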

ORYSAT (Rice, Tebonnet) = experiment: Postemergence herbicidal evaluation; format: in vivo, Oryza sativa, (L.) Tebonnet; conditions: postemergence
How it was run: (§2)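 Visual 0–9 rating versus control (stand, vigor, malformation, size, chlorosis, overall appearance), taken four to five weeks post-spray. Two-week-old seedlings received roughly 0.0156–0.500 kg/ha active in acetone/water (50/50) with 0.5% TWEEN 20 via nozzle at 40 psi.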

CYPIR (Rice Flatsedge) [2] = experiment: Postemergence weed control under flooded paddy conditions; format: in vivo, Cyperus iria; conditions: postemergence weeds
How it was run: as §1

ECHCG (Barnyardgrass) = experiment: Postemergence herbicidal evaluation; format: in vivo, Echinochloa crus-galli; conditions: postemergence
How it was run: as §2

MOOVA (Monochoria) = experiment: Preemergence weed control under flooded paddy conditions; format: in vivo, Monochoria vaginalis; conditions: rated 3-4 weeks after treatment
How it was run: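 Visual injury scored 0-9 against control three to four weeks post-treatment, greenhouse-grown. Application: acetone/water (50/50) solutions dosed directly into flood water (1.5-3 cm over silt loam, planted top 0.5 cm), roughly 0.0313 to 0.500 kg/ha active ingredient.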

ZEAMX (Corn, Field) = experiment: Preemergence herbicidal evaluation; format: in vivo, Zea mays; conditions: rated 4-5 weeks after treatment; for ZEAMX rating: preemergence, 0-9 scale
How it was run: (§3)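 Visual 0-9 rating vs control (stand, vigor, malformation, size, chlorosis, overall appearance), scored 4-5 wk after spraying. Seeded soil cups were treated preemergence with compound in aqueous acetone, ~0.0156-0.500 kg/ha equivalent.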

[3] = test system: ECHORC (Watergrass (Calif.)); experiment: Preemergence weed control under flooded paddy conditions; format: in vivo, Echinochloa oryzoides; conditions: rated 3-4 weeks after treatment
How it was run: (§4)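 First, seeds or propagules go into the top 0.5 cm of silt loam; next, water is held 1.5 to 3 cm over the soil; then compound (50/50 acetone/water) is pipetted into it at about 0.0313 to 0.500 kg/ha; finally plants are rated visually 0-9 after three to four weeks.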

[4] = test system: IPOHE (Morningglory, Ivyleaf); experiment: Preemergence herbicidal evaluation; format: in vivo, Ipomoea hederacea; conditions: rated 4-5 weeks after treatment; for IPOHE rating: preemergence, 0-9 scale
How it was run: as §3

CYPIR (Rice Flatsedge) [5] = experiment: Preemergence weed control under flooded paddy conditions; format: in vivo, Cyperus iria; conditions: rated 3-4 weeks after treatment
How it was run: as §4

[6] = test system: TRZAWR (Wheat, Winter, cv Riband); experiment: Preemergence herbicidal evaluation; format: in vivo, Triticum aestivum; conditions: rated 4-5 weeks after treatment; for TRZAWR rating: preemergence, 0-9 scale
How it was run: as §3

ABUTH (Velvetleaf) = experiment: Postemergence herbicidal evaluation; format: in vivo, Abutilon theophrasti; conditions: postemergence
How it was run: as §2

GALAP (Galium) = experiment: Postemergence herbicidal evaluation; format: in vivo, Galium aparine; conditions: postemergence
How it was run: as §2

SETVI (Foxtail, Green) = experiment: Postemergence herbicidal evaluation; format: in vivo, Setaria viridis; conditions: postemergence
How it was run: as §2

CYPSE (Flatsedge) = experiment: Postemergence weed control under flooded paddy conditions; format: in vivo, Cyperus serotinus; conditions: postemergence weeds
How it was run: as §1

[7] = Rate 0.0313 kg/ha, rated 3 to 4 weeks after treatment
[8] = Rate 0.0625 kg/ha, rated 3 to 4 weeks after treatment
[9] = Rate 0.1250 kg/ha, rated 3 to 4 weeks after treatment
[10] = Rate 0.2500 kg/ha, rated 3 to 4 weeks after treatment
[11] = rate 0.1160 kg/ha, 3-4 weeks after treatment
[12] = rate 0.2310 kg/ha, 3-4 weeks after treatment
[13] = rate 0.4630 kg/ha, 3-4 weeks after treatment

CCOC(=O)CN1C(=O)C(CC(=O)NS(=O)(=O)CC)SC1=Nc1cc(-n2c(=O)cc(C(F)(F)F)n(C)c2=O)c(F)cc1Cl (centres unmarked) [Compound 103, Ethyl 2-{{2-chloro-5-[3,6-dihydro-3-methyl-2,6-dioxo-4-(trifluoromethyl)-1(2H)-pyrimidinyl]-4-fluorophenyl}imino}-5-{[(ethylsulfonyl)carbamoyl]-methyl}-4-oxo-3-thiazolidineacetate]
Herbicidal rating SAGPY [1, 7]: 7.0
Herbicidal rating SAGPY [1, 8]: 9.0
Herbicidal rating SAGPY [1, 9]: 9.0
Herbicidal rating SAGPY [1, 10]: 9.0
herbicidal rating ORYSAT (ORYSAT (Rice, Tebonnet); rate 0.0156 kg/ha): 1.5
herbicidal rating ORYSAT (ORYSAT (Rice, Tebonnet); rate 0.0313 kg/ha): 2.0
herbicidal rating ORYSAT (ORYSAT (Rice, Tebonnet); rate 0.0625 kg/ha): 2.5
herbicidal rating ORYSAT (ORYSAT (Rice, Tebonnet); rate 0.1250 kg/ha): 3.5
Herbicidal rating CYPIR (CYPIR (Rice Flatsedge) [2]; [7]): 4.0
Herbicidal rating CYPIR (CYPIR (Rice Flatsedge) [2]; [8]): 6.0
Herbicidal rating CYPIR (CYPIR (Rice Flatsedge) [2]; [9]): 9.0
Herbicidal rating CYPIR (CYPIR (Rice Flatsedge) [2]; [10]): 9.0
herbicidal rating ECHCG (ECHCG (Barnyardgrass); rate 0.0156 kg/ha): 3.0
herbicidal rating ECHCG (ECHCG (Barnyardgrass); rate 0.0313 kg/ha): 9.0
herbicidal rating ECHCG (ECHCG (Barnyardgrass); rate 0.0625 kg/ha): 9.0
herbicidal rating ECHCG (ECHCG (Barnyardgrass); rate 0.1250 kg/ha): 9.0
MOOVA herbicidal effect rating (MOOVA (Monochoria); 0.0313 kg/ha): 5.0
MOOVA herbicidal effect rating (MOOVA (Monochoria); 0.0625 kg/ha): 7.0
MOOVA herbicidal effect rating (MOOVA (Monochoria); 0.1250 kg/ha): 9.0
MOOVA herbicidal effect rating (MOOVA (Monochoria); 0.2500 kg/ha): 9.0
ZEAMX rating (ZEAMX (Corn, Field); 0.0313 kg/ha): 0.0
ZEAMX rating (ZEAMX (Corn, Field); 0.0625 kg/ha): 0.0
ZEAMX rating (ZEAMX (Corn, Field); 0.1250 kg/ha): 0.0
ZEAMX rating (ZEAMX (Corn, Field); 0.2500 kg/ha): 0.0
ZEAMX rating (ZEAMX (Corn, Field); 0.5000 kg/ha): 1.0
ECHORC herbicidal effect rating ([3]; 0.0313 kg/ha): 4.0
ECHORC herbicidal effect rating ([3]; 0.0625 kg/ha): 4.0
ECHORC herbicidal effect rating ([3]; 0.1250 kg/ha): 5.0
ECHORC herbicidal effect rating ([3]; 0.2500 kg/ha): 6.0
IPOHE rating ([4]; 0.0313 kg/ha): 0.0
IPOHE rating ([4]; 0.0625 kg/ha): 0.0
IPOHE rating ([4]; 0.1250 kg/ha): 3.0
IPOHE rating ([4]; 0.2500 kg/ha): 5.0
IPOHE rating ([4]; 0.5000 kg/ha): 9.0
CYPIR herbicidal effect rating (CYPIR (Rice Flatsedge) [5]; 0.0313 kg/ha): 4.0
CYPIR herbicidal effect rating (CYPIR (Rice Flatsedge) [5]; 0.0625 kg/ha): 6.0
CYPIR herbicidal effect rating (CYPIR (Rice Flatsedge) [5]; 0.1250 kg/ha): 9.0
CYPIR herbicidal effect rating (CYPIR (Rice Flatsedge) [5]; 0.2500 kg/ha): 9.0
TRZAWR rating ([6]; 0.0313 kg/ha): 0.0
TRZAWR rating ([6]; 0.0625 kg/ha): 0.0
TRZAWR rating ([6]; 0.1250 kg/ha): 0.0
TRZAWR rating ([6]; 0.2500 kg/ha): 0.0
TRZAWR rating ([6]; 0.5000 kg/ha): 1.0
herbicidal rating ABUTH (ABUTH (Velvetleaf); rate 0.0156 kg/ha): 9.0
herbicidal rating ABUTH (ABUTH (Velvetleaf); rate 0.0313 kg/ha): 9.0
herbicidal rating ABUTH (ABUTH (Velvetleaf); rate 0.0625 kg/ha): 9.0
herbicidal rating ABUTH (ABUTH (Velvetleaf); rate 0.1250 kg/ha): 9.0
herbicidal rating GALAP (GALAP (Galium); rate 0.0156 kg/ha): 0.0
herbicidal rating GALAP (GALAP (Galium); rate 0.0313 kg/ha): 3.0
herbicidal rating GALAP (GALAP (Galium); rate 0.0625 kg/ha): 5.0
herbicidal rating GALAP (GALAP (Galium); rate 0.1250 kg/ha): 7.0
herbicidal rating SETVI (SETVI (Foxtail, Green); rate 0.0156 kg/ha): 4.0
herbicidal rating SETVI (SETVI (Foxtail, Green); rate 0.0313 kg/ha): 5.0
herbicidal rating SETVI (SETVI (Foxtail, Green); rate 0.0625 kg/ha): 9.0
herbicidal rating SETVI (SETVI (Foxtail, Green); rate 0.1250 kg/ha): 9.0
Herbicidal rating CYPSE (CYPSE (Flatsedge); [7]): 5.0
Herbicidal rating CYPSE (CYPSE (Flatsedge); [8]): 5.0
Herbicidal rating CYPSE (CYPSE (Flatsedge); [9]): 6.0
Herbicidal rating CYPSE (CYPSE (Flatsedge); [10]): 6.0

CCOC(=O)CN1C(=O)C(=Cc2ccc(F)cc2)SC1=Nc1cc(-n2c(=O)cc(C(F)(F)F)n(C)c2=O)c(F)cc1Cl [Compound 21, Ethyl 2-{{2-chloro-5-[3,6-dihydro-3-methyl-2,6-dioxo-4-(trifluoromethyl)-1(2H)-pyrimidinyl]-4-fluorophenyl}imino}-5-(p-fluorobenzylidene)-4-oxo-3-thiazolidineacetate]
Herbicidal rating SAGPY [1, 11]: 0.0
Herbicidal rating SAGPY [1, 12]: 0.0
Herbicidal rating SAGPY [1, 13]: 0.0
ORYSAT herbicidal rating (ORYSAT (Rice, Tebonnet); rate 0.0158 kg/ha): 2.0
ORYSAT herbicidal rating (ORYSAT (Rice, Tebonnet); rate 0.0315 kg/ha): 2.5
ORYSAT herbicidal rating (ORYSAT (Rice, Tebonnet); rate 0.0630 kg/ha): 2.5
Herbicidal rating CYPIR (CYPIR (Rice Flatsedge) [2]; [11]): 0.0
Herbicidal rating CYPIR (CYPIR (Rice Flatsedge) [2]; [12]): 0.0
Herbicidal rating CYPIR (CYPIR (Rice Flatsedge) [2]; [13]): 0.0
ECHCG herbicidal rating (ECHCG (Barnyardgrass); rate 0.0158 kg/ha): 1.0
ECHCG herbicidal rating (ECHCG (Barnyardgrass); rate 0.0315 kg/ha): 2.0
ECHCG herbicidal rating (ECHCG (Barnyardgrass); rate 0.0630 kg/ha): 2.0
Herbicidal rating MOOVA (MOOVA (Monochoria); 0.1160 kg/ha): 0.0
Herbicidal rating MOOVA (MOOVA (Monochoria); 0.2310 kg/ha): 0.0
Herbicidal rating MOOVA (MOOVA (Monochoria); 0.4630 kg/ha): 0.0
ZEAMX preemergence herbicidal rating (ZEAMX (Corn, Field); rate 0.2500 kg/ha): 0.0
Herbicidal rating ECHORC ([3]; 0.1160 kg/ha): 2.0
Herbicidal rating ECHORC ([3]; 0.2310 kg/ha): 4.0
Herbicidal rating ECHORC ([3]; 0.4630 kg/ha): 5.0
IPOHE preemergence herbicidal rating ([4]; rate 0.2500 kg/ha): 0.0
Herbicidal rating CYPIR (CYPIR (Rice Flatsedge) [5]; 0.1160 kg/ha): 0.0
Herbicidal rating CYPIR (CYPIR (Rice Flatsedge) [5]; 0.2310 kg/ha): 0.0
Herbicidal rating CYPIR (CYPIR (Rice Flatsedge) [5]; 0.4630 kg/ha): 0.0
TRZAWR preemergence herbicidal rating ([6]; rate 0.2500 kg/ha): 0.0
ABUTH herbicidal rating (ABUTH (Velvetleaf); rate 0.0158 kg/ha): 4.0
ABUTH herbicidal rating (ABUTH (Velvetleaf); rate 0.0315 kg/ha): 7.0
ABUTH herbicidal rating (ABUTH (Velvetleaf); rate 0.0630 kg/ha): 9.0
GALAP herbicidal rating (GALAP (Galium); rate 0.0158 kg/ha): 2.0
GALAP herbicidal rating (GALAP (Galium); rate 0.0315 kg/ha): 2.0
GALAP herbicidal rating (GALAP (Galium); rate 0.0630 kg/ha): 4.0
SETVI herbicidal rating (SETVI (Foxtail, Green); rate 0.0158 kg/ha): 0.0
SETVI herbicidal rating (SETVI (Foxtail, Green); rate 0.0315 kg/ha): 2.0
SETVI herbicidal rating (SETVI (Foxtail, Green); rate 0.0630 kg/ha): 2.0
Herbicidal rating CYPSE (CYPSE (Flatsedge); [11]): 0.0
Herbicidal rating CYPSE (CYPSE (Flatsedge); [12]): 0.0
Herbicidal rating CYPSE (CYPSE (Flatsedge); [13]): 0.0

Reference: US20020137929A1, “1 - (3-heterocyclylphenyl) isothiourea, -isourea, -guanidine and -amidine herbicidal agents” (Intellectual Property Department, BASF Aktiengesellschaft, priority 1998, published 2002)
